Data as given in patent publication US10828326B2, “Compositions and methods for treating and preventing venom related poisoning” (priority 2015, dated 2020).

Tests used:
human plasma = experiment: Thrombelastography of venom naïve human plasma with iron and/or CO addition (Example I); type: biochemical; settings: baseline (venom naïve); 10 μM FeCl3 and/or 100 μM CORM-2; compared to plasma without any additions
Description: (§1) Two-hundred mg of lyophilized, pooled venom was obtained from four western diamondback rattlesnakes (Crotalus atrox) for experimentation. Venom was reconstituted in calcium-free phosphate buffered saline (PBS, Sigma-Aldrich, Saint Louis, Mo., USA) at a concentration of 20 mg/ml, aliquoted, and then stored at −80° C. until experimentation at the University of Arizona. Pooled human normal plasma (George King Bio-Medical, Overland Park, Kans., USA) anticoagulated with sodium citrate was rapidly thawed at 37° C. and used for experimentation. To assess the effects of pretreatment of fibrinogen with iron, CO, or both, 1% additions of PBS, ferric chloride (FeCl3, 99.9% pure, Sigma-Aldrich, Saint Louis, Mo., USA) in PBS, or CORM-2 (tricarbonyldichlororuthenium (II) dimer, a CO releasing molecule, Sigma-Aldrich, Saint Louis, Mo., USA) dissolved in dimethyl sulfoxide (DMSO, Sigma-Aldrich, Saint Louis, Mo., USA). The final concentrations of FeCl3 and CORM-2 were 10 μM and 100 μM, respectively; these concentrations are associated with nearly maximal augmenting effects on coagulation kinetics (see, Nielsen V G, et al., Blood Coagul Fibrinolysis 2014; 25:695-702). Plasma was exposed to these various agents for at least 5 min prior to incubations with venom.
(§2) The final volume for all subsequently described plasma sample mixtures was 359.4 μl. Sample composition consisted of 326 μl of plasma; 10 μl of tissue factor reagent (0.1% final concentration in distilled water; Diagnostica Stago S.A.S., Asnieres sur Seine, France) and 3.4 μl of PBS or venom (final concentration 0.5 μg/ml). […] The aforementioned plasma and venom mixtures were placed in a disposable cup in a computer-controlled Thrombelastograph® hemostasis system (Model 5000, Haemoscope Corp., Niles, Ill., USA) and incubated for 5 or 20 min at 37° C., with addition of 20 μl of 200 mM CaCl2) as the last step to initiate clotting. Data were collected at 37° C. for 15 min after 5 min of incubation, whereas samples incubated with venom for 20 min had data collected for 30 min, given the prolonged onset of coagulation and diminished rate of thrombus formation. The following elastic modulus-based parameters previously described (see, Nielsen, et al., 2014, Blood Coagul. Fibrinolysis 25:695-702; Nielsen, et al., 2011, Blood Coagul. Fibrinolysis 22: 443-447); Nielsen V G, et al., Blood Coagul Fibrinolysis 2014; 25:845-850) were determined: time to maximum rate of thrombus generation (TMRTG): this is the time interval (min) observed prior to maximum speed of clot growth; maximum rate of thrombus generation (MRTG): this is the maximum velocity of clot growth observed (dynes/cm^2/sec); and total thrombus generation (TTG, dynes/cm^2), the final viscoelastic resistance observed after clot formation.
(§3) Data are presented as mean+SD. A commercially available statistical program was used for one-way analysis of variance followed by Holm-Sidak post hoc analyses (SigmaStat 3.1, Systat Software, Inc., San Jose, Calif., USA). Graphics depicting viscoelastic data were generated with a commercially available program (OrigenPro 7.5, OrigenLab Corporation, Northampton, Mass., USA; CorelDRAW12, Corel Corporation, Mountain View, Calif., USA).

Crotalus atrox venom = experiment: Thrombelastography of human plasma pretreated with iron and/or CO, then incubated with Crotalus atrox venom (Example I); type: biochemical; settings: 0.5 μg/ml venom, 5 min incubation
Description: as §1, §2, §3

With `[Cl][Fe]([Cl])[Cl]` [iron, ferric chloride] the “maximum rate of thrombus generation (MRTG)” value (human plasma) was “increases”, the “time to maximum rate of thrombus generation (TMRTG)” value (human plasma) was “significantly decreases” and the “total thrombus generation (TTG)” value (human plasma) was “does not affect”. For the same compound, the “maximum rate of thrombus generation (MRTG), change on venom exposure” value (Crotalus atrox venom; vs matched venom naïve samples) was “significantly decreased”, the “maximum rate of thrombus generation (MRTG)” value (Crotalus atrox venom; vs plasma without additions exposed to venom) was “significantly greater” and the “time to maximum rate of thrombus generation (TMRTG)” value (Crotalus atrox venom; vs samples without iron/CO additions or with CO addition alone) was “significantly smaller”.
